Consider 21 molecules from patent US6369059B1, “Tetracyclic derivatives, process of preparation and use” (ICOS Corporation, priority 1994, dated 2002).

Regarding `CCCCN1CC(=O)N2[C@@H](c3ccc(OC)cc3)c3[nH]c4ccccc4c3C[C@H]2C1=O` (relative stereo) [Example 30, Trans-2,3,6,7,12,12a-Hexahydro-2-butyl-6-(4-methoxyphenyl)-pyrazino[2′,1′:6,1]pyrido[3,4-b]indole-1,4-dione], the melting point fell in the range of 212 to 214 °C.
With `COc1cccc([C@H]2c3[nH]c4ccccc4c3C[C@@H]3C(=O)N(C)CC(=O)N23)c1` (relative stereo) [Example 33, Cis-2,3,6,7,12,12a-Hexahydro-6-(3-methoxyphenyl)-2-methyl-pyrazino[2′,1′:6,1]pyrido[3,4-b]indole-1,4-dione] the figure was 267 to 269 °C.
In turn, `CCOc1ccc([C@H]2c3[nH]c4ccccc4c3C[C@@H]3C(=O)N(C)CC(=O)N23)cc1` (relative stereo) [Example 34, Cis-2,3,6,7,12,12a-Hexahydro-6-(4-ethoxyphenyl)-2methyl-pyrazino[2′,1′:6,1]pyrido[3,4-b]indole-1,4-dione] had a melting point of 247 to 248 °C.
With `CN1CC(=O)N2[C@@H](c3ccc4c(c3)OCCO4)c3[nH]c4ccccc4c3C[C@@H]2C1=O` (relative stereo) [Example 38, Cis-2,3,6,7,12,12a-Hexahydro-6-(3,4-ethylenedioxyphenyl)-2-methyl-pyrazino[2′,1′:6,1]pyrido[3,4-b]indole-1,4-dione] the figure was 303 to 305 °C; with `CCCCN1CC(=O)N2[C@@H](c3ccc(Cl)cc3)c3[nH]c4ccccc4c3C[C@@H]2C1=O` (relative stereo) [Example 42, Cis-2,3,6,7,12,12a-Hexahydro-2-butyl-6-(4-chlorophenyl)-pyrazino[2′,1′:6,1]pyrido[3,4-b]indole-1,4-dione], 164 to 166 °C.
With `CN1CC(=O)N2[C@@H](c3ccc(Cl)c(Cl)c3)c3[nH]c4ccccc4c3C[C@@H]2C1=O` (relative stereo) [Example 43, Cis-2,3,6,7,12,12a-Hexahydro-6-(3,4-dichlorophenyl)-2-methyl-pyrazino[2′,1′:6,1]pyrido[3,4-b]indole-1,4-dione] the figure was more than 260 °C.
`CCCCN1CC(=O)N2[C@@H](c3ccccc3)c3[nH]c4ccccc4c3C[C@@H]2C1=O` (relative stereo) [Example 44, Cis-2,3,6,7,12,12a-Hexahydro-2-butyl-6-phenyl-pyrazino[2′,1′:6,1]pyrido[3,4-b]indole-1,4-dione] registered a melting point of 243 to 245 °C.
With `O=C1[C@@H]2Cc3c([nH]c4ccccc34)[C@H](c3ccccc3)N2C(=O)CN1Cc1ccccc1` (relative stereo) [Example 46, Trans-2,3,6,7,12,12a-Hexahydro-2-benzyl-6-phenyl-pyrazino[2′,1′:6,1]pyrido[3,4-b]indole-1,4-dione] the figure was 284 °C; with `CN1CC(=O)N2[C@@H](c3ccc4ccccc4c3)c3[nH]c4ccccc4c3C[C@@H]2C1=O` (relative stereo) [Example 50, Cis-2,3,6,7,12,12a-Hexahydro-2-methyl-6-(2-naphthyl)-pyrazino[2′,1′:6,1]pyrido[3,4-b]indole-1,4-dione], more than 260 °C.
For `CCCCN1CC(=O)N2[C@@H](c3cccs3)c3[nH]c4ccccc4c3C[C@@H]2C1=O` (relative stereo) [Example 51, Cis-2,3,6,7,12,12a-Hexahydro-2-butyl-6-(2-thienyl)-pyrazino[2′,1′:6,1]pyrido[3,4-b]indole-1,4-dione] the value was 226 °C; for `O=C1[C@H]2Cc3c([nH]c4ccccc34)[C@H](c3ccc(Br)s3)N2C(=O)CN1CC1CC1` (relative stereo) [Example 54, Cis-2,3,6,7,12,12a-Hexahydro-6-(5-bromo-2-thienyl)-2-cyclopropylmethyl-pyrazino[2′,1′:6,1]pyrido[3,4-b]indole-1,4-dione], 190 °C; for `O=C1[C@H]2Cc3c([nH]c4ccccc34)[C@H](c3ccc(Br)s3)N2C(=O)CN1C1CCCC1` (relative stereo) [Example 55, Cis-2,3,6,7,12,12a-Hexahydro-6-(5-bromo-2-thienyl)-2-cyclopentyl-pyrazino[2′,1′:6,1]pyrido[3,4-b]indole-1,4-dione], 252 °C.
With `CN1CC(=O)N2[C@@H](c3ccsc3)c3[nH]c4ccccc4c3C[C@@H]2C1=O` (relative stereo) [Example 57, Cis-2,3,6,7,12,12a-Hexahydro-2-methyl-6-(3-thienyl)-pyrazino[2′,1′:6,1]pyrido[3,4-b]indole-1,4-dione] the figure was 290 to 295 °C; with `Cc1ccc([C@H]2c3[nH]c4ccccc4c3C[C@@H]3C(=O)N(C)CC(=O)N23)cc1` (relative stereo) [Example 61, Cis-2,3,6,7,12,12a-Hexahydro-2-methyl-6-(4-methylphenyl)-pyrazino[2′,1′:6,1]pyrido[3,4-b]indole-1,4-dione], more than 260 °C.
For `Cc1ccc([C@H]2c3[nH]c4ccccc4c3C[C@@H]3C(=O)N(C(C)C)CC(=O)N23)cc1` (relative stereo) [Example 62, Cis-2,3,6,7,12,12a-Hexahydro-2-isopropyl-6-(4-methylphenyl)-pyrazino[2′,1′:6,1]pyrido[3,4-b]indole-1,4-dione], the melting point came out at 170 °C.
`Cc1ccc([C@H]2c3[nH]c4ccccc4c3C[C@@H]3C(=O)N(CC4CC4)CC(=O)N23)cc1` (relative stereo) [Example 64, Cis-2,3,6,7,12,12a-Hexahydro-2-cyclopropylmethyl-6-(4-methylphenyl)-pyrazino[2′,1′:6,1]pyrido[3,4-b]indole-1,4-dione] registered a melting point of 194 °C.
With `Cc1cccc([C@H]2c3[nH]c4ccccc4c3C[C@@H]3C(=O)N(C)CC(=O)N23)c1` (relative stereo) [Example 65, Cis-2,3,6,7,12,12a-Hexahydro-2-methyl-6-(3-methylphenyl)-pyrazino[2′,1′:6,1]pyrido[3,4-b]indole-1,4-dione] the figure was more than 260 °C; with `CCCCN1CC(=O)N2[C@@H](c3ccc(C(F)(F)F)cc3)c3[nH]c4ccccc4c3C[C@@H]2C1=O` (relative stereo) [Example 66, Cis-2,3,6,7,12,12a-Hexahydro-2-butyl-6-(4-trifluoromethylphenyl)-pyrazino[2′,1′:6,1]pyrido[3,4-b]indole-1,4-dione], 155 °C.
Molecule `CN1CC(=O)N2[C@@H](c3ccc(OC(F)(F)F)cc3)c3[nH]c4ccccc4c3C[C@@H]2C1=O` (relative stereo) [Example 67, Cis-2,3,6,7,12,12a-Hexahydro-2-methyl-6-(4-trifluoromethoxyphenyl)-pyrazino[2′,1′:6,1]pyrido[3,4-b]indole-1,4-dione] showed a melting point of 174 to 180 °C.
For `CN1CC(=O)N2[C@@H](c3ccc(O)cc3)c3[nH]c4ccccc4c3C[C@@H]2C1=O` (relative stereo) [Example 68, Cis-2,3,6,7,12,12a-Hexahydro-2-methyl-6-(4-hydroxyphenyl)-pyrazino[2′,1′:6,1]pyrido[3,4-b]indole-1,4-dione] the value was 179 to 180 °C.
With `COc1cc([C@H]2c3[nH]c4ccccc4c3C[C@@H]3C(=O)N(C)CC(=O)N23)ccc1O` (relative stereo) [Example 70, Cis-2,3,6,7,12,12a-Hexahydro-6-(4-hydroxy-3-methoxyphenyl)-2-methyl-pyrazino[2′,1′:6,1]pyrido[3,4-b]indole-1,4-dione] the figure was 264 to 265 °C.

As a reminder, the melting point is the temperature of the solid-liquid transition.
